Entries after “also recorded” stand apart in the source; their conditions may differ.
How the values were obtained:
mice = assay: Contextual fear conditioning test; assay type: in vivo; details: Visudyne/photoconversion twice
Procedure: This behavioral test was performed following a published protocol^53 with modifications. In this associative learning task, mice are presented with a neutral conditioned cue stimulus that is paired with an aversive unconditioned stimulus in a particular context. The mice learn that the chamber context and the cue stimulus predict the aversive stimulus and elicit a specific behavioral response, namely freezing. Mice were brought into the testing room to acclimate for at least 30 minutes before testing. For the test, we used two Habitest® chambers (Coulbourn Instruments, Allentown, PA, USA) with stainless grid floors attached to a shock generator for foot shock delivery and dimly illuminated with a white fluorescent light bulb. The chambers were cleaned and made odor-free before starting the experiment and between each session (or each mouse). The fear conditioning test was conducted over 2 days. […] On day 2, mice were tested and scored for conditioned fear to the training context for 3 minutes (context test), but with no presentation of the cue stimulus. […] Mice behaviour was recorded by a digital video camera mounted above the conditioning chamber and freezing was manually scored by a blinded experimenter using the Etholog V2.2 software. Parameters analysed included the percentage of time freezing during the 3 minutes of the context test and the last 3 minutes of the cued test.

[1] = test system: hippocampal transcriptome; assay: RNA-seq of whole hippocampus after meningeal lymphatic ablation (Table 2, Table 3); assay type: in vivo, mice
Procedure: After defrosting in ice, samples were mechanically dissociated in extraction buffer and RNA was isolated using the kit components according to the manufacturer's instructions (RNeasy mini kit, cat. no. 74106, Qiagen). The Illumina TruSeq Stranded Total RNA Library Prep Kit was used for cDNA library preparation from total RNA samples. Sample quality control was performed on an Agilent 4200 TapeStation Instrument, using the Agilent D1000 kit, and on the Qubit Fluorometer (Thermo Fisher Scientific). For RNA sequencing (RNA-seq), libraries were loaded on to a NextSeq 500 (Illumina) using an Illumina NextSeq High Output (150 cycle) cartridge (#FC-404-2002).
The raw sequencing reads (FASTQ files) were first chastity filtered, which removes any clusters that have a higher than expected intensity of the called base compared to other bases. The quality of the reads was then evaluated using FastQC^57, and after passing quality control (QC), the expression of the transcripts was quantified against the UCSC mm10 genome^58 using Salmon^59. These transcript abundances were then imported into R and summarized with tximport^60, and then DESeq2^61 was used to normalize the raw counts, perform exploratory analysis (e.g., principal component analysis), and to perform differential expression (DE) analysis. Before DE analysis of the meningeal LECs from adult vs old mice dataset, surrogate variable analysis^62 (SVA) was used to identify and adjust for latent sources of unwanted variation as implemented in the SVA package^63. The P-values from the DE analysis were corrected for multiple hypothesis testing with the Benjamini-Hochberg false discovery rate procedure (adj. P-value). Functional enrichment of DE genes, using gene sets from Gene Ontology (GO) and Kyoto Encyclopedia of Genes and Genomes (KEGG), was determined with Fisher's exact test as implemented in the clusterProfiler^64 Bioconductor package. Heatmaps of the DE genes and enriched gene sets were generated with the R package pheatmap^65. Normalized counts of selected transcripts were used to calculate the fold change relative to respective controls.

5×FAD mice = assay: Amyloid pathology in meninges and hippocampus of 5xFAD mice (Aβ immunostaining); assay type: in vivo
Procedure: Male or female wild-type mice (C57BL/6J background) were either bred in-house, purchased from the Jackson Laboratory (Bar Harbor, Maine, USA) or provided by the National Institutes of Health/National Institute on Aging (Bethesda, MD, USA). All mice were maintained in the animal facility for habituation for at least 1 week prior to the start of the manipulation/experimentation. C57BL/6J wild-type mice were tested at 2-3, 12-14 and 20-24 months of age. Male hemizygous B6.Cg-Tg(PDGFB-APPSwInd)20Lms/2Mmjax (J20, JAX stock #006293) and B6.Cg-Tg(APPSwFILon,PSEN1*M146L*L286V)6799Vas/Mmjax (5×FAD, JAX stock #008730) were purchased from the Jackson Laboratory and bred in-house on a C57BL/6J background. […] 5×FAD hemizygous mice overexpress the transgene constructs under neural-specific elements of the mouse thymocyte differentiation antigen 1 promoter and present accelerated accumulation of Aβ42 and deposition of amyloid and gliosis in the brain starting at 2 months of age, with dramatic amyloid plaque load without major behavioral deficits at 5 months^45. In-house bred male transgene carriers and non-carrier (WT) littermates were used at different ages that are indicated throughout the manuscript. Prox1^LacZ mice (designated Prox1^+/− mice in this manuscript) on a NMRI background (kindly provided by Dr. Guillermo Oliver, Northwestern University, Chicago, IL) were also bred in-house and used in this study as a constitutive model for dysfunctional lymphatic vessels^46. Mice of all strains were housed in an environment with controlled temperature and humidity, on 12 hours light/dark cycles (lights on at 7:00), and fed with regular rodent's chow and sterilized tap water ad libitum. All experiments were approved by the Institutional Animal Care and Use Committee of the University of Virginia.

[2] = test system: brain/meningeal vasculature; assay: Photoacoustic imaging of brain/meningeal blood flow and oxygenation; assay type: in vivo; details: 5xFAD mice, 1 week after Visudyne/photoconversion
Source text: Adult mice were maintained under anesthesia with 1.5% isoflurane and at a constant body temperature with the aid of a heating pad. A surgical incision was made in the scalp and the fascia was removed to expose the skull. One day prior to the imaging, the skull over the region of interest was thinned to the desired thickness (˜100 μm). Mice were then imaged by multi-parametric photoacoustic microscopy, which is capable of simultaneously image oxygen saturation of hemoglobin (sO2) and blood flow speed as described previously^50. Using the oxy-hemoglobin and deoxy-hemoglobin values, recorded using two nanosecond-pulsed lasers (532 and 559 nm), it is possible to compute the final sO2. Correlation analysis of adjacent A-line signals allows the quantification of blood flow speed within individual vessels. By segmenting major vessels within the region of interest, average values of the blood flow speed and sO2 were extracted for quantitative analysis.

[3] = after meningeal lymphatic ablation (Visudyne/photoconversion) and MWM
[4] = Visudyne/photoconversion for 1.5 months

verteporfin [Visudyne]
CFC context test (mice; adult mice): no differences between groups | CFC cued test (mice; vs control groups): statistically significant difference | number of genes down-regulated in the hippocampus [1, 3]: 2138 genes | number of genes up-regulated in the hippocampus [1, 3]: 1599 genes | hippocampal transcriptome (RNA-seq principal component analysis) without MWM ([1]; four weeks of meningeal lymphatic ablation, Visudyne/photoconversion vs vehicle/photoconversion): did not induce significant changes; also recorded: did not show a differential clustering | hippocampal gene expression (RNA-seq) after MWM performance ([1]; prolonged meningeal lymphatic ablation, Visudyne/photoconversion vs vehicle/photoconversion): significant differences in hippocampal gene expression; also recorded: differential clustering | amyloid deposition in the meninges (5×FAD mice; Visudyne/photoconversion every 3 weeks for 1.5 months from ~2 months of age): marked deposition of amyloid in the meninges | brain amyloid burden in the hippocampi (5×FAD mice; [4]): aggravation of brain amyloid burden | macrophage recruitment to Aβ aggregates in meninges (5×FAD mice; [4]): macrophage recruitment to large Aβ aggregates | blood flow in brain/meninges [2]: no differences; also recorded: did not affect | blood oxygenation in brain/meninges [2]: no differences; also recorded: did not affect
